In one series the target is BCL-XL (Homo sapiens (Human), UniProt Q07817). Nature of the series: Protein-protein interaction assay BCL-XL/Bad BH3 peptide (BCL-XL assay, TR-FRET). Type of series: binding. Particulars: read-out: BCL-XL Assay IC50 (median). How it is done:
Assay 2 Protein-Protein Interaction Assay: BCL-XL/Bad BH3 Peptide (BCL-XL Assay)
The dose-dependent inhibition by the compounds described in this invention of the interaction between BCL-XL and the BH3 domain of Bad (both human) was determined using a steady state binding competition assay with time-resolved fluorescence energy transfer (TR-FRET) readout. For that purpose BCL-XL (amino acids 1-212, C-terminal fused to a hexahistidine (6×His) tag (SEQ ID 3) and a synthetic Bad BH3-derived peptide of sequence Biotin-PEG2-PEG2-[…]-Nle-[…]-amide (SEQ ID 4) served as protein receptor and tracer ligand respectively. The recombinant BCL-XL protein (expressed in E. coli) was purchased from BPS Bioscience (San Diego, Calif., USA). The Bad BH3-derived peptide can be obtained from e.g. Biosyntan (Berlin, Germany).
In the assay 11 different concentrations of each compound (0.1 nM, 0.33 nM, 1.1 nM, 3.8 nM, 13 nM, 44 nM, 0.15 μM, 0.51 μM, 1.7 μM, 5.9 μM and 20 μM) were typically measured as duplicates in the same microtiter plate. For that, 100-fold concentrated DMSO solutions were prepared by serial dilutions (1:3.4) of a 2 mM stock solution in a clear, 384-well microtiter plate (Greiner Bio-One, Frickenhausen, Germany). From there, 50 nl were transferred in a dark test plate (Greiner Bio-One, Frickenhausen, Germany). The assay was initiated by addition of 2 μL of a 2,5-fold concentrated His-BCL-XL solution (usually for a 1 nM end concentration in 5 μL reaction volume) in aqueous assay buffer [50 mM Tris/HCl pH 7, 100 mM sodium chloride (NaCl), 50 mM potassium fluoride (KF), 0.005% Tween-20, 2 mM DTT, 0.1% bovine gamma globulin (BGG)] to the compounds in the assay plate. This was followed by a 10-minute incubation step at 22° C. for pre-equilibration of the putative complex between His-BCL-XL and the compounds. After that, 3 μL of a 1.67-fold concentrated solution (in assay buffer) consisting of Bad BH3-derived peptide (1 nM end concentration) and TR-FRET detection reagents [1.67 nM anti-His-Eu cryptate and 1.67 nM streptavidin-XL665 (both from Cisbio Bioassays, Codolet, France)], were added.
The mixture was incubated in the dark for one hour at 22° C. and then overnight at 4° C. The formation of BCL-XL/Bad complexes was determined by measuring the resonance energy transfer of the anti-His- Eu-cryptate antibody to the streptavidin-XL665 present in the reaction. For that purpose, the fluorescence emission at 620 nm and 665 nm after excitation at 330-350 nm was measured in a TR-FRET measuring instrument, for instance a Rubystar or a Pherastar (both from BMG Lab Technologies, Offenburg, Germany) or a Viewlux (Perkin-Elmer). The ratio of the emission at 665 nm and at 622 nm was used as indicator of the amount of BCL-XL/Bad complexes present.
The resulting data (ratio) were normalized, taking 0% inhibition as the mean value of control measurements (usually 32 data points) where all reagents were included. In this case 50 nl DMSO were used instead of compounds. […] IC50 values were determined by regression analysis based on a 4 parameter equation (minimum, maximum, IC50, Hill; Y=Max+(Min−Max)/(1+(X/IC50)^Hill) using the Screener Software (Genedata).
For orientation: In TR-FRET formats the signal depends on donor and acceptor labels being close together.

A further series deals with SUDHL10 cells. Briefly: Induction of cytotoxicity in SUDHL10 cells (Assay 6). In kind it is cell-based. To be noted: 5 h, CellTiter-Glo, read-out: Cytotox SUDHL10 IC50 (median). The essentials:
(§1)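 SUDHL5 and SUDHL10 cells plated and held overnight at 37° C, then incubated 5 h at 37° C with compound. Viability measured by CellTiter-Glo luminescence after 15 min shaking at room temperature. Cell-free medium wells served as control.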
Background: In ATP-based viability assays light output follows the ATP content of the culture.

The subject of a further series is HMC-1-8 cells. Nature of the series: Antiproliferation assay HMC-1-8 (Assay 7). Type of series: cell-based. The essentials:
(§2)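 72 h antiproliferation, 37 °C, CellTiter-Glo luminescence. Day 0 plate = CI; DMSO = C0; IC50 calculated from these.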

Series [1] concerns SUDHL5 cells. Briefly: Induction of cytotoxicity in SUDHL5 cells (Assay 6). Type of series: cell-based. Particulars: 5 h, CellTiter-Glo, read-out: Cytotox SUDHL5 IC50 (median). The essentials: as §1
In series [2] the test system is SUDHL5 cells. Nature of the series: Antiproliferation assay SUDHL5 (Assay 7). In kind it is cell-based. The essentials:
as §2

[3] abbreviates: read-out: Antiproli HMC-1-8 IC50 median; 72 h, CellTiter-Glo.
Setting [4] is: 72 h, CellTiter-Glo; read-out: Antiproli SUDHL5 IC50 (median).
Where [5] appears, read: 72 h, CellTiter-Glo; read-out: Antiproli HMC-1-8 IC50 median.
The mark [6] stands for this setting: read-out: Antiproli SUDHL5 IC50 (median); 72 h, CellTiter-Glo.

Each structure is given as a SMILES string. Counter-ions that a name gives are not always drawn. Like-named read-outs stand apart in the source and are kept apart here. Some results are limits rather than exact numbers.

Chain of BCL-XL (Q07817 1-212): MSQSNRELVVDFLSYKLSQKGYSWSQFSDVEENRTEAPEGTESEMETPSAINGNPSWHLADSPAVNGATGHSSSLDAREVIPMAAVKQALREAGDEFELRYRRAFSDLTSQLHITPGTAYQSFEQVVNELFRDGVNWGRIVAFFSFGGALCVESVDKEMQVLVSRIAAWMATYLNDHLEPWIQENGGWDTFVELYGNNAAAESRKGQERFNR

Turning to `CCc1c2c(nn1C)C(CCN1CCN(C)CC1)OCCCCn1c(C(=O)O)c(CCCOc3cccc4cc(F)ccc34)c3ccc(Cl)c-2c31` (racemic) [Example 71, (rac)-4-chloro-3-ethyl-7-{3-[(6-fluoronaphthalen-1-yl)oxy]propyl}-2-methyl-(15-rac)-[2-(4-methylpiperazin-1-yl)ethyl]-2,10,11,12,13,15-hexahydropyrazolo[4′,3′:9,10][1,6]oxazacycloundecino[8,7,6-hi]indole-8-carboxylic Acid—N-ethylethanamine Salt (Mixture 2 Od Stereoisomers)], the IC50 is > 20 µM at BCL-XL, 0.036 µM in the series with SUDHL10 cells and 1.37 µM in the series on HMC-1-8 cells (setting [3]).

For the molecule `CCc1c2c(nn1C)C(CCN1CC(F)(F)C1)OCCCCn1c(C(=O)O)c(CCCOc3cccc4cc(F)ccc34)c3ccc(Cl)c-2c31` (single isomer, unassigned; (+)) [Example 78, (+)-4-chloro-15-[2-(3,3-difluoroazetidin-1-yl)ethyl]-3-ethyl-7-{3-[(6-fluoronaphthalen-1-yl)oxy]propyl}-2-methyl-2,10,11,12,13,15-hexahydropyrazolo[4′,3′:9,10][1,6]oxazacycloundecino[8,7,6-hi]indole-8-carboxylic Acid—N-ethylethanamine Salt], the 50% inhibitory concentration (IC50) in the series on SUDHL5 cells [1] stood at 0.014 µM; in the series on SUDHL10 cells it was 0.012 µM; with SUDHL5 cells [2] (setting [4]) it was 0.016 µM; with HMC-1-8 cells (setting [5]), 0.563 µM.

As to `CCc1c2c(nn1C)C(CCC1CCOCC1)OCCCCn1c(C(=O)O)c(CCCOc3cccc4cc(F)ccc34)c3ccc(Cl)c-2c31` (single isomer, unassigned; enantiomer 1) [Example 61, 4-chloro-3-ethyl-7-{3-[(6-fluoronaphthalen-1-yl)oxy]propyl}-2-methyl-15-[2-(oxan-4-yl)ethyl]-2,10,11,12,13,15-hexahydropyrazolo[4′,3′:9,10][1,6]oxazacycloundecino[8,7,6-hi]indole-8-carboxylic Acid (Enantiomer 1)], the IC50 with SUDHL5 cells [1] was found to be 0.038 µM; in the series on SUDHL10 cells, 0.029 µM; in the series on SUDHL5 cells [2] (setting [4]) it was 0.024 µM; in the series on HMC-1-8 cells (setting [5]) it was 0.186 µM.

On to `CCc1c2c(nn1C)C(CCN1CCN(C)CC1)OCCCCn1c(C(=O)O)c(CCCOc3cccc4cc(F)ccc34)c3ccc(Cl)c-2c31` (racemic) [Example 68, 4-chloro-3-ethyl-7-{3-[(6-fluoronaphthalen-1-yl)oxy]propyl}-2-methyl-(15-rac)-[2-(4-methylpiperazin-1-yl)ethyl]-2,10,11,12,13,15-hexahydropyrazolo[4′,3′:9,10][1,6]oxazacycloundecino[8,7,6-hi]indole-8-carboxylic Acid—N-ethylethanamine Salt (Mixture 1 of Stereoisomers)], for which the values for the IC50 on BCL-XL, in the series on SUDHL10 cells and in the series on HMC-1-8 cells (setting [3]) were > 20 µM, 0.15 µM and 2.62 µM, respectively.

Take `CCc1c2c(nn1C)C(CCN1CCOCC1)OCCCCn1c(C(=O)O)c(CCCOc3cccc4ccccc34)c3ccc(F)c-2c31` (single isomer, unassigned; enantiomer 1) [Example 11, 3-ethyl-4-fluoro-2-methyl-15-[2-(morpholin-4-yl)ethyl]-7-{3-[(naphthalen-1-yl)oxy]propyl}-2,10,11,12,13,15-hexahydropyrazolo[4′,3′:9,10][1,6]oxazacycloundecino[8,7,6-hi]indole-8-carboxylic Acid—N-ethylethanamine Salt (Enantiomer 1)]: the IC50 in the series on SUDHL5 cells [1] turned out to be 0.095 µM; in the series on SUDHL10 cells, 0.25 µM; with SUDHL5 cells [2] (setting [6]), 0.075 µM; in the series with HMC-1-8 cells (72 h, read-out: Antiproli HMC-1-8 IC50 median, 72 h, CellTiter-Glo), 1.03 µM.

Take `CCc1c2c(nn1C)C1CCCN1CCCCn1c(C(=O)O)c(CCCOc3cccc4cc(F)ccc34)c3ccc(Cl)c-2c31` (single isomer, unassigned; (+)) [Example 105, (+)-17-chloro-1-ethyl-14-{3-[(6-fluoronaphthalen-1-yl)oxy]propyl}-2-methyl-3b,4,5,6,8,9,10,11-octahydro-2H-pyrazolo[3′,4′:8,9]pyrrolo[1′,2′:6,7][1,6]diazacycloundecino[10,11,1-hi]indole-13-carboxylic Acid]: the IC50 with SUDHL5 cells [1] is 0.37 µM; with SUDHL10 cells, 0.29 µM; with SUDHL5 cells [2] (setting [4]), 0.34 µM; in the series with HMC-1-8 cells (setting [5]), 2.66 µM.

Take `CCc1c2c(nn1C)C1CCCCN1CCCCn1c(C(=O)O)c(CCCOc3cccc4ccccc34)c3ccc(Cl)c-2c31` (racemic) [Example 102, (rac)-18-chloro-1-ethyl-2-methyl-15-[3-(1-naphthyloxy)propyl]-2,3b,4,5,6,7,9,10,11,12-decahydropyrazolo[3′,4′:8,9]pyrido[1′,2′:6,7][1,6]diazacycloundecino[10,11,1-hi]indole-14-carboxylic Acid]: the IC50 was 0.8 µM in the series with SUDHL5 cells [1] (Homo sapiens, SU-DHL-5, 5 h); 0.95 µM with SUDHL10 cells (Homo sapiens, SU-DHL10, 5 h); 1.4 µM in the series with SUDHL5 cells [2] (Homo sapiens, SU-DHL-5, 72 h, 72 h, CellTiter-Glo; read-out: Antiproli SUDHL5 IC50 (median)); 7.47 µM with HMC-1-8 cells (72 h, CellTiter-Glo, read-out: Antiproli HMC-1-8 IC50 median).

Consider `CCc1c2c(nn1C)C(CCC(C)(C)O)OCCCCn1c(C(=O)O)c(CCCOc3cccc4cc(F)ccc34)c3ccc(Cl)c-2c31` (single isomer, unassigned; enantiomer 1) [Example 75, (+)-4-chloro-3-ethyl-7-{3-[(6-fluoronaphthalen-1-yl)oxy]propyl}-15-(3-hydroxy-3-methylbutyl)-2-methyl-2,10,11,12,13,15-hexahydropyrazolo[4′,3′:9,10][1,6]oxazacycloundecino[8,7,6-hi]indole-8-carboxylic Acid—N-ethylethanamine Salt (Enantiomer 1)], for which the IC50 in the series on SUDHL5 cells [1] turned out to be 0.012 µM; in the series on SUDHL10 cells, 0.0097 µM; in the series with SUDHL5 cells [2] (setting [4]), 0.011 µM; in the series on HMC-1-8 cells (setting [5]), 0.159 µM.

Turning to `CCc1c2c(nn1C)C(CCC1CCOCC1)OCCCCn1c(C(=O)O)c(CCCOc3cccc4cc(F)ccc34)c3ccc(Cl)c-2c31` (single isomer, unassigned; enantiomer 1) [Example 63, (+)-4-chloro-3-ethyl-7-{3-[(6-fluoronaphthalen-1-yl)oxy]propyl}-2-methyl-15-[2-(oxan-4-yl)ethyl]-2,10,11,12,13,15-hexahydropyrazolo[4′,3′:9,10][1,6]oxazacycloundecino[8,7,6-hi]indole-8-carboxylic Acid—N-ethylethanamine Salt (Enantiomer 1)], the IC50 in the series with SUDHL5 cells [1] was determined as 0.049 µM; in the series on SUDHL10 cells, 0.067 µM; with SUDHL5 cells [2] (setting [6]), 0.042 µM; with HMC-1-8 cells (setting [3]), 0.351 µM.

For orientation: IC50 means the midpoint of a concentration-inhibition curve.

These data come from patent publication US11440923B2, “Substituted macrocyclic indole derivatives” (Bayer Aktiengesellschaft, priority 2017, dated 2022).
